Measured values reported in ChEMBL document CHEMBL4138234, “Aegeline inspired synthesis of novel amino alcohol and thiazolidinedione hybrids with antiadipogenic activity in 3T3-L1 cells” (Eur J Med Chem, 2018).
Calls of active or inactive are those of the source. No cut-off for these calls is given here.

Assays:
[1] = system: 3T3-L1; experiment: Anti-adipogenic activity in mouse 3T3L1 preadipocytes assessed as reduction in lipid accumulation at 20 uM by Oil Red O absorbance assay; type: functional, cell-based
[2] = system: 3T3-L1; experiment: Anti-adipogenic activity in mouse 3T3L1 preadipocytes assessed as reduction in MDI induced-lipid accumulation at 10 uM after 20 mins by Oil Red O staining-based assay; type: functional, cell-based
[3] = system: 3T3-L1; experiment: Anti-adipogenic activity in mouse 3T3L1 cells assessed as reduction in lipid accumulation at 20 uM incubated for 2 to 6 days by Oil Red O absorbance method; type: functional, cell-based
[4] = biological target: T1, Peroxisome proliferator-activated receptor gamma (Mus musculus) (UniProt P37238); experiment: Inhibition of PPARgamma mRNA levels in mouse 3T3L1 preadipocytes at 20 uM after 6 days by RT-PCR analysis; type: cell-based
T1 sequence (whole entry): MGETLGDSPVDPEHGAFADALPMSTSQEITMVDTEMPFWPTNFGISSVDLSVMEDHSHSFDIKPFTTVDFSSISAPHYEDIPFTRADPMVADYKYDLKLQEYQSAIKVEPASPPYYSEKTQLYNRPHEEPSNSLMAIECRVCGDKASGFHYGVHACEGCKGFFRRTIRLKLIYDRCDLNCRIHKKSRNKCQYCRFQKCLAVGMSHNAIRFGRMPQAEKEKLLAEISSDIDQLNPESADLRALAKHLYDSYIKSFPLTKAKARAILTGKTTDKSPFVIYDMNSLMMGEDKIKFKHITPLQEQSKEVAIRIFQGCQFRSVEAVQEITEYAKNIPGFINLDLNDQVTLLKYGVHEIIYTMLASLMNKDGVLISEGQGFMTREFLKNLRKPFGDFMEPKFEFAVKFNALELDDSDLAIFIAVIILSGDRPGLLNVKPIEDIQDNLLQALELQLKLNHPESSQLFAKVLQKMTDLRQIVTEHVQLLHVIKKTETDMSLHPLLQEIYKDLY

[5] = system: 3T3-L1; experiment: Anti-adipogenic activity in mouse 3T3L1 cells assessed as reduction in lipid accumulation at 20 uM incubated up to 6 days by Oil Red O staining based microscopic method; type: functional, cell-based
[6] = system: 3T3-L1; experiment: Anti-adipogenic activity in mouse 3T3L1 cells assessed as reduction in lipid accumulation at 20 uM incubated for 2 to 4 days by Oil Red O staining based microscopic method; type: functional, cell-based
[7] = system: 3T3-L1; experiment: Anti-adipogenic activity in mouse 3T3L1 cells assessed as reduction in lipid accumulation at 20 uM incubated for 2 to 6 days by Oil Red O staining based microscopic method; type: functional, cell-based
[8] = biological target: T1, Peroxisome proliferator-activated receptor gamma (Mus musculus); experiment: Inhibition of PPARgamma protein expression in mouse 3T3L1 preadipocytes at 20 uM up to 6 days by Western blot analysis; type: cell-based
[9] = system: 3T3-L1; experiment: Cell cycle arrest in mouse 3T3L1 cells assessed as accumulation at S phase at 10 to 20 uM after 16 hrs by propidium iodide-staining based flow cytometry; type: functional
[10] = system: 3T3-L1; experiment: Anti-adipogenic activity in mouse 3T3L1 preadipocytes in differentiation media assessed as reduction in lipid accumulation by Oil Red O staining microscopic method; type: functional, cell-based
[11] = system: 3T3-L1; experiment: Anti-adipogenic activity in mouse 3T3L1 cells assessed as reduction in lipid accumulation at 20 uM incubated for 4 to 6 days by Oil Red O staining based microscopic method; type: functional, cell-based
[12] = system: 3T3-L1; experiment: Anti-adipogenic activity in mouse 3T3L1 cells assessed as reduction in lipid accumulation at 20 uM incubated for 4 to 6 days by Oil Red O absorbance method; type: functional, cell-based
[13] = biological target: CCAAT/enhancer-binding protein alpha (Mus musculus) (UniProt P53566); experiment: Inhibition of C/EBPalpha protein expression in mouse 3T3L1 preadipocytes at 20 uM up to 6 days by Western blot analysis; type: cell-based
Sequence of CCAAT/enhancer-binding protein alpha (Mus musculus) (P53566 whole entry): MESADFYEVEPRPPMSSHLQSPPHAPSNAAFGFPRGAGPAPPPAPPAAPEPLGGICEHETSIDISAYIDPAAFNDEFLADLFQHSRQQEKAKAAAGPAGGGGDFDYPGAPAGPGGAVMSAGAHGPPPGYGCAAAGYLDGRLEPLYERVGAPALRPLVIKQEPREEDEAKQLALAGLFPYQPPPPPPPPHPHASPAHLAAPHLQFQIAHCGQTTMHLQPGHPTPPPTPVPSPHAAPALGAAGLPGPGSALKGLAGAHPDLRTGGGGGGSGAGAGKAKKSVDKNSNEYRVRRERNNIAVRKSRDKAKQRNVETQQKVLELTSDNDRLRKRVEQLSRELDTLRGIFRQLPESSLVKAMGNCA

[14] = system: 3T3-L1; experiment: Cell cycle arrest in mouse 3T3L1 cells assessed as accumulation at S phase at 20 uM after 24 hrs by propidium iodide-staining based flow cytometry (reference value: 22%); type: functional
[15] = organism: Mus musculus; experiment: Inhibition of PPARgamma/CEBPalpha-mediated increase in aP2 mRNA levels in mouse 3T3L1 preadipocytes at 20 uM after 6 days by RT-PCR analysis; type: cell-based
[16] = organism: Mus musculus; experiment: Inhibition of PPARgamma/CEBPalpha-mediated increase in FAS protein expression in mouse 3T3L1 preadipocytes at 20 uM up to 6 days by Western blot analysis; type: cell-based
[17] = system: 3T3-L1; experiment: Anti-adipogenic activity in mouse 3T3L1 cells assessed as reduction in lipid accumulation at 20 uM incubated up to 6 days by Oil Red O absorbance assay; type: functional, cell-based
[18] = organism: Mus musculus; experiment: Inhibition of PPARgamma/CEBPalpha-mediated increase in aP2 protein expression in mouse 3T3L1 preadipocytes at 20 uM up to 6 days by Western blot analysis; type: cell-based
[19] = system: 3T3-L1; experiment: Anti-adipogenic activity in mouse 3T3L1 cells assessed as reduction in lipid accumulation at 20 uM incubated for 2 to 4 days by Oil Red O absorbance method; type: functional, cell-based
[20] = biological target: CCAAT/enhancer-binding protein alpha (Mus musculus) (UniProt P53566); experiment: Inhibition of C/EBPalpha mRNA levels in mouse 3T3L1 preadipocytes at 20 uM after 6 days by RT-PCR analysis; type: cell-based
[21] = system: 3T3-L1; experiment: Cell cycle arrest in mouse 3T3L1 cells assessed as accumulation at S phase at 10 uM after 24 hrs by propidium iodide-staining based flow cytometry (reference value: 22%); type: functional
[22] = organism: Mus musculus; experiment: Inhibition of PPARgamma/CEBPalpha-mediated increase in FAS mRNA levels in mouse 3T3L1 preadipocytes at 20 uM after 6 days by RT-PCR analysis; type: cell-based
[23] = system: 3T3-L1; experiment: Anti-adipogenic activity in mouse 3T3L1 preadipocytes in differentiation medium assessed as reduction in lipid accumulation at 20 uM by Oil Red O absorbance assay relative to control; type: functional; design: scale not given: the % may be the effect or the level left
[24] = system: 3T3-L1; experiment: Cytotoxicity against mouse 3T3L1 cells; type: cell-based

O=C1S/C(=C\c2ccc(OCC(O)CNCc3ccccn3)cc2)C(=O)N1Cc1ccccc1Br (centres undefined)
Activity [1]: Active

O=C1S/C(=C\c2ccc(OCC(O)CNCc3cccnc3)cc2)C(=O)N1Cc1ccccc1 (centres undefined)
Activity [1]: inactive

O=C1S/C(=C\c2ccc(OCC(O)CNCc3ccccn3)cc2)C(=O)N1Cc1ccccc1 (centres undefined)
Activity [2]: Active
Activity [3]: Active
inhibition [4]: Active
Activity [1]: Active
Activity [5]: Active
Activity [6]: Active
Activity [7]: Active
inhibition [8]: Active
Activity [9]: inactive
Activity [10]: Dose-dependent effect
Activity [11]: Active
Activity [12]: Active
inhibition [13]: Active
Activity [14]: 36%
inhibition [15]: Active
inhibition [16]: Active
Activity [17]: Active
inhibition [18]: Active
Activity [19]: Active
inhibition [20]: Active
Activity [21]: 37%
inhibition [22]: Active
Activity [23]: >50%

O=C1S/C(=C\c2ccc(OCC(O)CNCc3ccccn3)cc2)C(=O)N1Cc1ccc(F)cc1 (centres undefined)
Activity [24]: Toxic

O=C1NC(=O)/C(=C/c2ccc(OCC(O)COC(=O)c3ccc(Cl)nc3)cc2)S1 (centres undefined)
Activity [1]: inactive

O=C1S/C(=C\c2ccc(OCC(O)CNCc3cccnc3)cc2)C(=O)N1Cc1ccc(F)cc1 (centres undefined)
Activity [1]: inactive

CC(NCC(O)COc1ccc(/C=C2\SC(=O)N(Cc3ccccc3)C2=O)cc1)c1ccccc1 (centres undefined)
Activity [24]: Toxic

COc1ccc(C(=O)OCC(O)COc2ccc(/C=C3\SC(=O)NC3=O)cc2)c(OC)c1 (centres undefined)
Activity [1]: inactive

O=C1S/C(=C\c2ccc(OCC(O)CNCc3cccnc3)cc2)C(=O)N1Cc1ccccc1Br (centres undefined)
Activity [1]: inactive

CC(NCC(O)COc1ccc(/C=C2\SC(=O)N(Cc3ccccc3Br)C2=O)cc1)c1ccccc1 (centres undefined)
Activity [24]: Toxic

O=C(Cc1ccc(Cl)cc1)OCC(O)COc1ccc(/C=C2\SC(=O)NC2=O)cc1 (centres undefined)
Activity [1]: inactive

O=C1NC(=O)/C(=C/c2ccc(OCC(O)COC(=O)c3cccnc3)cc2)S1 (centres undefined)
Activity [1]: inactive
